The subject of assay [1] is estrogen receptor reporter gene. In words: Inhibition of estrogen receptor reporter gene activity (ERE-luc luciferase) in MCF7/ERE-luc cells. Type of assay: cell-based. To be noted: Homo sapiens, 0.1 nM β-estradiol, 20 hours, read-out: IC50 of inhibitory activity on the activity of the estrogen receptor reporter gene. A digest of the protocol: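 MCF7 cells stably carrying ERE-driven luciferase, in charcoal-stripped serum medium, were stimulated with 0.1 nM β-estradiol plus compound (nine 10-fold dilutions from 10 μM) for 20 h at 37° C. ONE-Glo luminescence was read, and IC50 was fitted from signal versus log concentration.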
In general terms: A reporter such as luciferase makes a cellular process visible.

For assay [2], the target named is estrogen receptor ERα Y537S mutant-type (Homo sapiens (Human), UniProt P03372, Y537S). In words: Covalent modification of ERα Y537S mutant-type LBD by high-resolution mass spectrometry. Type of assay: binding. To be noted: after 24 hours; 2 μM protein, 10 μM compound, 4° C. The procedure: The ligand binding domain (LBD, aa296-554) of estrogen receptor ERα wild-type and ERα Y537S mutant-type was expressed in E. coli and purified. 2 μM ERα wild-type or ERα Y537S mutant-type protein and 10 μM compound were added to a buffer solution containing 50 mM Tris-HCl, pH7.5, 150 mM NaCl, 1 mM TCEP and 5% glycerol and mixed well. The solution was incubated at 4° C. for 24 hours, followed by high-resolution mass spectrometry (Agilent Technologies, Agilent Q-tof 6530) assay. Alternatively, 1 μM ERα wild-type or ERα Y537S mutant-type protein and 3 μM compound were added to a buffer solution containing 50 mM Tris-HCl, pH7.5, 150 mM NaCl, 1 mM TCEP and 5% glycerol and mixed well. The solution was incubated at 37° C. for 15 minutes, followed by high-resolution mass spectrometry assay. In the mass spectrometry assay results, the peak whose molecular weight is the sum of the molecular weight of the protein and compound is the product of covalent modification. The percentage of covalent modification is obtained by calculating the ratio of […] to total protein.
Sequence of estrogen receptor ERα Y537S mutant-type (P03372 296-554 Y537S): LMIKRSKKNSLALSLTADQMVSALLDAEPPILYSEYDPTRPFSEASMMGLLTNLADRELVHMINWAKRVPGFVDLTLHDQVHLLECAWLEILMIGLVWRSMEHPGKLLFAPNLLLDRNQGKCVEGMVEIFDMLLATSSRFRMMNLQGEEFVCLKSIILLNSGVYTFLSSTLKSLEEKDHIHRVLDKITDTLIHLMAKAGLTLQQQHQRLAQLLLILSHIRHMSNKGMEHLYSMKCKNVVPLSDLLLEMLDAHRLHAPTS

In a further assay the test system is MCF7 D538G. In words: Inhibition of proliferation of MCF7 cell expressing ERα D538G mutant. Type of assay: cell-based. To be noted: Homo sapiens, 144 hours; for Emax: read-out: Maximum inhibition. In short, it runs like this:
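MCF7 cells stably expressing lentiviral ERα Y537S or D538G mutants, seeded 3,000 cells/well, then exposed in 2% FBS MEM to nine 4-fold dilutions from 100 nM for 144 h at 37° C. Viability read by CellTiter-Glo luminescence; IC50 fitted from concentration-response.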

SMILES strings stand for the structures.

By IC50 is commonly meant the concentration that gives 50% inhibition. Regarding `O=C(/C=C/CNC1(COc2ccc(/C(=C(/CC(F)(F)F)c3ccccc3)c3ccc4[nH]nc(F)c4c3)cn2)CC1)N1CCOCC1` [Example 1, (E)-1-Morpholino-4-((1-(((5-((Z)-4,4,4-trifluoro-1-(3-fluoro-1H-indazol-5-yl)-2-phenylbut-1-en-1-yl)pyridin-2-yl)oxy)methyl)cyclopropyl)amino)but-2-en-1-one], in assay [1], the IC50 is 1 nM. The “Covalent modification effect on the estrogen receptor ERα Y537S mutant-type” value (shortened to “Covalent modification effect”) in assay [2] turned out to be 97%. Also, in the assay on MCF7 D538G, the IC50 came to 2 nM and the Emax turned out to be 100%.
`CN(C)C(=O)/C=C/CN1CCC[C@@H](Oc2ccc(/C(=C(/CC(F)(F)F)c3ccccc3)c3ccc4[nH]nc(F)c4c3)cn2)C1` [Example 14, (E)-N,N-Dimethyl-4-((R)-3-((5-((Z)-4,4,4-trifluoro-1-(3-fluoro-1H-indazol-5-yl)-2-phenylbut-1-en-1-yl)pyridin-2-yl)oxy)piperidin-1-yl)but-2-enamide]: the values for the IC50 (in assay [1]; in the assay on MCF7 D538G) were 2 nM and 3 nM, respectively. For the same compound, in assay [2], the “Covalent modification effect” value is listed as 94%. Further, the Emax in the assay with MCF7 D538G was 107%.
In the same order, the values of `O=C(/C=C/CN1CCC[C@@H](Oc2ccc(/C(=C(/CC(F)(F)F)c3ccccc3)c3ccc4[nH]nc(F)c4c3)cn2)C1)N1CCCC1` [Example 15, (E)-1-(Pyrrolidin-1-yl)-4-((R)-3-((5-((Z)-4,4,4-trifluoro-1-(3-fluoro-1H-indazol-5-yl)-2-phenylbut-1-en-1-yl)pyridin-2-yl)oxy)piperidin-1-yl)but-2-en-1-one] are 3 nM, 1 nM, 96% and 105%.
As for `CN(C)C(=O)/C=C/CNC1(COc2ccc(/C(=C(/CC(F)(F)F)c3ccccc3)c3ccc4[nH]nc(F)c4c3)cn2)CC1` [Example 39, (E)-N,N-Dimethyl-4-((1-(((5-((Z)-4,4,4-trifluoro-1-(3-fluoro-1H-indazol-5-yl)-2-phenylbut-1-en-1-yl)pyridin-2-yl)oxy)methyl)cyclopropyl)amino)but-2-enamide], the IC50 in assay [1] stood at 2 nM. For the same compound, the “Covalent modification effect” value in assay [2] stood at 98%. Besides, in the assay with MCF7 D538G, half-maximal inhibition (IC50) was put at 0.6 nM and the Emax was found to be 105%.
`O=C(/C=C/CNC1(COc2ccc(/C(=C(/CC(F)(F)F)c3ccccc3)c3ccc4[nH]nc(F)c4c3)cn2)CC1)N1CC(O)C1` [Example 40, (E)-1-(3-Hydroxyazetidin-1-yl)-4-((1-(((5-((Z)-4,4,4-trifluoro-1-(3-fluoro-1H-indazol-5-yl)-2-phenylbut-1-en-1-yl)pyridin-2-yl)oxy)methyl)cyclopropyl)amino)but-2-en-1-one]: in assay [1], the IC50 stood at 2 nM. For the same compound, the “Covalent modification effect” value in assay [2] turned out to be 98%. In addition, in the assay on MCF7 D538G, the IC50 was 0.2 nM and the Emax was found to be 106%.
As to `O=C(/C=C/CNC1(COc2ccc(/C(=C(/CC(F)(F)F)c3ccccc3)c3ccc4[nH]nc(F)c4c3)cn2)CC1)N1CC[C@H](O)C1` [Example 41, (E)-1-((S)-3-Hydroxypyrrolidin-1-yl)-4-((1-(((5-((Z)-4,4,4-trifluoro-1-(3-fluoro-1H-indazol-5-yl)-2-phenylbut-1-en-1-yl)pyridin-2-yl)oxy)methyl)cyclopropyl)amino)but-2-en-1-one], the IC50 in assay [1] turned out to be 3 nM. The “Covalent modification effect” value in assay [2] worked out at 95%. Further, in the assay with MCF7 D538G, half-maximal inhibition (IC50) was put at 0.2 nM and the Emax worked out at 106%.
In the same order, the values of `O=C(/C=C/CNC1(COc2ccc(/C(=C(/CC(F)(F)F)c3ccccc3)c3ccc4[nH]nc(F)c4c3)cn2)CC1)N1CCO[C@@H](CO)C1` [Example 42, (E)-1-((R)-2-(Hydroxymethyl)morpholino)-4-((1-(((5-((Z)-4,4,4-trifluoro-1-(3-fluoro-1H-indazol-5-yl)-2-phenylbut-1-en-1-yl)pyridin-2-yl)oxy)methyl)cyclopropyl)amino)but-2-en-1-one] are 0.7 nM, 97%, 0.1 nM and 105%.

The values above are taken from patent US12325696B2, “Indazole derivative, preparation method therefor, and pharmaceutical application thereof” (JIANGSU HENGRUI MEDICINE CO., LTD., priority 2019, dated 2025).
